The NIST ThermoML archive (doi:10.1016/j.jct.2014.09.001)
Numbers after ± are expanded uncertainties. Blank lines part the entries; values can stand above or below the compound they belong to.

Legend:
[1] = excess molar enthalpy (molar enthalpy of mixing); xn = mol fraction of the nth substance listed; details: 298 K, 81.5 kPa, Liquid, Isoperibol calorimetry
[2] = refractive index (Na D-line) (dimensionless); details: 298.15 K; 101.33 kPa; Liquid; Standard Abbe refractometry
[3] = 298.15 K; 101.33 kPa; Liquid; Vibrating tube method

Structure (SMILES): O=[N+]([O-])c1ccccc1 [nitrobenzene] + CCO
- excess molar enthalpy ([1]; x1 = 0.0997): 0.112 ± 0.00153 kcal/mol
- excess molar enthalpy ([1]; x1 = 0.1991): 0.201 ± 0.00263 kcal/mol
- excess molar enthalpy ([1]; x1 = 0.2988): 0.264 ± 0.00335 kcal/mol
- excess molar enthalpy ([1]; x1 = 0.4003): 0.307 ± 0.00382 kcal/mol
- excess molar enthalpy ([1]; x1 = 0.4899): 0.342 ± 0.0043 kcal/mol
- excess molar enthalpy ([1]; x1 = 0.5905): 0.355 ± 0.00454 kcal/mol
- excess molar enthalpy ([1]; x1 = 0.6997): 0.344 ± 0.0043 kcal/mol
- excess molar enthalpy ([1]; x1 = 0.7999): 0.304 ± 0.00382 kcal/mol
- excess molar enthalpy ([1]; x1 = 0.8939): 0.222 ± 0.00287 kcal/mol

- refractive index [2]: 1.39734 ± 0.00031
- mass density [3]: 805.79 ± 1 kg/m3
Structure (SMILES): CCCCO [butan-1-ol]

Structure (SMILES): O=[N+]([O-])c1ccccc1 [nitrobenzene]
- refractive index [2]: 1.55004 ± 0.00037
- mass density [3]: 1198.12 ± 1.1 kg/m3

Structure (SMILES): O=[N+]([O-])c1ccccc1 [nitrobenzene] + CCCCO
- excess molar enthalpy ([1]; x1 = 0.1116): 0.184 ± 0.00239 kcal/mol
- excess molar enthalpy ([1]; x1 = 0.2145): 0.31 ± 0.00382 kcal/mol
- excess molar enthalpy ([1]; x1 = 0.3183): 0.398 ± 0.00502 kcal/mol
- excess molar enthalpy ([1]; x1 = 0.4126): 0.448 ± 0.0055 kcal/mol
- excess molar enthalpy ([1]; x1 = 0.5133): 0.464 ± 0.00574 kcal/mol
- excess molar enthalpy ([1]; x1 = 0.61): 0.466 ± 0.00574 kcal/mol
- excess molar enthalpy ([1]; x1 = 0.6849): 0.449 ± 0.0055 kcal/mol
- excess molar enthalpy ([1]; x1 = 0.7953): 0.391 ± 0.00502 kcal/mol
- excess molar enthalpy ([1]; x1 = 0.8987): 0.262 ± 0.00335 kcal/mol

- refractive index [2]: 1.38361 ± 0.00031
- mass density [3]: 799.56 ± 1 kg/m3
Structure (SMILES): CCCO [propan-1-ol]

- refractive index [2]: 1.39551 ± 0.00037
- mass density [3]: 802.48 ± 1 kg/m3
Structure (SMILES): CCC(C)O (stereo not drawn) [butan-2-ol]

- refractive index [2]: 1.37518 ± 0.00033
- mass density [3]: 780.9 ± 1 kg/m3
Structure (SMILES): CC(C)O [propan-2-ol]

Structure (SMILES): O=[N+]([O-])c1ccccc1 [nitrobenzene] + CC(C)O
- excess molar enthalpy ([1]; x1 = 0.1038): 0.208 ± 0.00263 kcal/mol
- excess molar enthalpy ([1]; x1 = 0.2065): 0.339 ± 0.0043 kcal/mol
- excess molar enthalpy ([1]; x1 = 0.306): 0.42 ± 0.00526 kcal/mol
- excess molar enthalpy ([1]; x1 = 0.3954): 0.466 ± 0.00574 kcal/mol
- excess molar enthalpy ([1]; x1 = 0.4911): 0.488 ± 0.00598 kcal/mol
- excess molar enthalpy ([1]; x1 = 0.5906): 0.485 ± 0.00598 kcal/mol
- excess molar enthalpy ([1]; x1 = 0.6999): 0.451 ± 0.00574 kcal/mol
- excess molar enthalpy ([1]; x1 = 0.8042): 0.381 ± 0.00478 kcal/mol
- excess molar enthalpy ([1]; x1 = 0.8996): 0.264 ± 0.00335 kcal/mol

Structure (SMILES): O=[N+]([O-])c1ccccc1 [nitrobenzene] + CCCO
- excess molar enthalpy ([1]; x1 = 0.1037): 0.169 ± 0.00222 kcal/mol
- excess molar enthalpy ([1]; x1 = 0.2036): 0.288 ± 0.00359 kcal/mol
- excess molar enthalpy ([1]; x1 = 0.3063): 0.364 ± 0.00454 kcal/mol
- excess molar enthalpy ([1]; x1 = 0.4034): 0.409 ± 0.00502 kcal/mol
- excess molar enthalpy ([1]; x1 = 0.4956): 0.432 ± 0.0055 kcal/mol
- excess molar enthalpy ([1]; x1 = 0.4993): 0.432 ± 0.0055 kcal/mol
- excess molar enthalpy ([1]; x1 = 0.593): 0.43 ± 0.00526 kcal/mol
- excess molar enthalpy ([1]; x1 = 0.6975): 0.408 ± 0.00502 kcal/mol
- excess molar enthalpy ([1]; x1 = 0.7978): 0.351 ± 0.0043 kcal/mol
- excess molar enthalpy ([1]; x1 = 0.9025): 0.242 ± 0.00311 kcal/mol

Structure (SMILES): O=[N+]([O-])c1ccccc1 [nitrobenzene] + CCC(C)O
- excess molar enthalpy ([1]; x1 = 0.1035): 0.262 ± 0.00335 kcal/mol
- excess molar enthalpy ([1]; x1 = 0.2049): 0.424 ± 0.00526 kcal/mol
- excess molar enthalpy ([1]; x1 = 0.3065): 0.528 ± 0.00669 kcal/mol
- excess molar enthalpy ([1]; x1 = 0.4088): 0.579 ± 0.00717 kcal/mol
- excess molar enthalpy ([1]; x1 = 0.5111): 0.592 ± 0.00741 kcal/mol
- excess molar enthalpy ([1]; x1 = 0.6117): 0.568 ± 0.00693 kcal/mol
- excess molar enthalpy ([1]; x1 = 0.6988): 0.534 ± 0.00669 kcal/mol
- excess molar enthalpy ([1]; x1 = 0.7988): 0.448 ± 0.0055 kcal/mol
- excess molar enthalpy ([1]; x1 = 0.8981): 0.292 ± 0.00382 kcal/mol

- refractive index [2]: 1.35961 ± 0.00031
- mass density [3]: 784.9 ± 1 kg/m3
Structure (SMILES): CCO [ethanol]
